The values that follow are results of earlier work, collected in patent US12594250B2, “Prevention of accumulated tolerance to stimulant medication for the treatment of ADHD” (priority 2021, dated 2026).

Data set [1] deals with children with ADHD. The conditions noted are these: for duration of effect / action / efficacy: after one administration.
For data set [2] the following is noted: oral administration; for time to maximum serum concentration (C-max): immediate-release bolus.
For data set [3], the target named is T1, DA Transporter (DAT) (Homo sapiens, UniProt Q01959).
T1 construct: dopamine transporter density was increased in specific dopamine regions of the brain; host or cells: living brain (caudate nucleus, nucleus accumbens) of adults with ADHD; endogenous protein
T1 sequence (Q01959 whole entry): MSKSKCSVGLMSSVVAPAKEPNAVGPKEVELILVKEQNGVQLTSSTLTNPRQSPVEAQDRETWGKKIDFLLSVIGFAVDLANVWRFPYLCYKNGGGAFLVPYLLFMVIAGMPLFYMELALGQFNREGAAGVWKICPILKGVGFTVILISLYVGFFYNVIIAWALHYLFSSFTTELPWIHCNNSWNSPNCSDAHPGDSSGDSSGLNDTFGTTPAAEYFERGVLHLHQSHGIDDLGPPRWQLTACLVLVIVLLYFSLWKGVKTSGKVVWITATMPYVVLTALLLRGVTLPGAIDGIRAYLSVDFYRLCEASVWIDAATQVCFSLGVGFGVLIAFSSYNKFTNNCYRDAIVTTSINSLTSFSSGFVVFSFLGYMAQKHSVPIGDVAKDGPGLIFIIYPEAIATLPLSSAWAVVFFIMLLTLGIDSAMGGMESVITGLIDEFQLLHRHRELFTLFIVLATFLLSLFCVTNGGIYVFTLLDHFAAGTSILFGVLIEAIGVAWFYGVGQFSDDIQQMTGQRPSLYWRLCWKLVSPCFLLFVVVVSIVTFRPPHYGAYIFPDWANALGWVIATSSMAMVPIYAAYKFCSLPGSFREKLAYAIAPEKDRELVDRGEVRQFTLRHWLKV
To be noted: adults with ADHD, a year of consistent medication use.

Data set [4] concerns children with ADHD.
Data set [5] relates to ADHD. The conditions noted are these: high dose of IR formulation.

Like-named read-outs stand apart in the source and are kept apart here.

For the compound `NC1=NC(=O)C(c2ccccc2)O1` (centres unmarked) [Cylert, pemoline], the “duration of effect / action / efficacy” value in data set [1] was 6 h.
On to `CC(N)Cc1ccccc1` (centres unmarked) [amphetamine], for which the “time to maximum serum concentration (C-max)” value in data set [2] is “about 2 hours”. In addition, the “duration of constant effect” value in data set [1] (twice-a-day (BID) dosing of immediate-release) is 10 to 12 h.
Consider `COC(=O)C(c1ccccc1)C1CCCCN1` (centres unmarked) [methylphenidate], for which the DAT density result in data set [3] was “increases DAT density”. In addition, the “time to maximum serum concentration (C-max)” value in data set [2] is on record as “about 1 hours”. Further, the “half-life (T-½)” value in data set [2] (serum concentration) is 2 to 3 h. The results for the “effect (PD response) across the day” value in data set [4] (ascending PK profile) and in data set [4] (flat PK profile) were “increasing effect” and “decreasing effect”, respectively. Moreover, the “duration of effect / action / efficacy” value in data set [1] (listed as Ritalin) was 3 h. In addition, the “onset of clinical effect (reduction in symptoms)” value in data set [1] (after oral administration) was “within an hour”.
In the case of `NC(=O)C[S+]([O-])C(c1ccccc1)c1ccccc1` (centres unmarked) [modafinil], the serious side effects result in data set [5] was “a few cases were suspected of serious dermatologic side effects”.
